Data from patent US8864853B2, “Additive mixture for the bactericidal and anticorrosive additization of fuels” (l'Air Liquide Societe Anonyme pour l'etude et …, priority 2009, dated 2014).

Assay: Example 1: visual appearance of diesel with Cu or brass sheet
Type: physicochemical
Details: evaluation of Example 1; diesel oil with 5% FAME; time delay, concentration-dependent, turbulent flow
Method: Materials used: • 3,3′-methylenebis(5-methyloxazolidine) • brass 63 (100×20×1 mm), Cat. No.: 16-24 from Riegger Industriehandel, Reinbek, Federal Republic of Germany • E-copper ((100×20×1 mm), Cat. No.: 15-54 from Riegger • diesel fuel to EN 590, with 5% (V/V) fatty acid methyl ester
Procedure: The solutions and the metal sheet were each introduced into a 500 ml wide-neck bottle. Solutions 1A-1C were not stirred; solutions 1D-1G were stirred with a magnetic stirrer. The appearance of the solutions was assessed visually.

compatibility as an additive to diesel oil in contact with copper or nonferrous metal: incompatible
SMILES: CC1CN(CN2COC(C)C2)CO1 (stereo not shown) [3,3′-methylenebis(5-methyloxazolidine)]
